System: 186277-243-T-J2-PDC complex spheroid viability
Assay: Anticancer human tumor 186277-243-T-J2-PDC patient-derived colon adenocarcinoma cell line growth inhibition [GQUAD]
Conditions: for IC50: curve of first compound; for viability, T/C: stronger effect = lower value
How it was run: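 Viability of tumor cells grown as complex spheroids with endothelial and stromal cells, exposed to drug combinations. Top concentration at or near clinical Cmax (else 10 microM), diluted in half-log increments.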

[1] = second compound 0.0316 µM, first compound 0.0316 µM
[2] = second compound 0.0316 µM, first compound 0.1 µM
[3] = second compound 0.0316 µM, first compound 0.316 µM
[4] = second compound 0.0316 µM, first compound 1 µM
[5] = second compound 0.0316 µM, first compound 3.16 µM
[6] = second compound 0.0316 µM, first compound 10 µM
[7] = second compound 0.1 µM, first compound 0.0316 µM
[8] = second compound 0.1 µM, first compound 0.1 µM
[9] = second compound 0.1 µM, first compound 0.316 µM
[10] = second compound 0.1 µM, first compound 1 µM
[11] = second compound 0.1 µM, first compound 3.16 µM
[12] = second compound 0.1 µM, first compound 10 µM
[13] = second compound 0.316 µM, first compound 0.0316 µM
[14] = second compound 0.316 µM, first compound 0.1 µM
[15] = second compound 0.316 µM, first compound 0.316 µM
[16] = second compound 0.316 µM, first compound 1 µM
[17] = second compound 0.316 µM, first compound 3.16 µM
[18] = second compound 0.316 µM, first compound 10 µM
[19] = second compound 1 µM, first compound 0.0316 µM
[20] = second compound 1 µM, first compound 0.1 µM
[21] = second compound 1 µM, first compound 0.316 µM
[22] = second compound 1 µM, first compound 1 µM
[23] = second compound 1 µM, first compound 3.16 µM
[24] = second compound 1 µM, first compound 10 µM
[25] = second compound 3.16 µM, first compound 0.0316 µM
[26] = second compound 3.16 µM, first compound 0.1 µM
[27] = second compound 3.16 µM, first compound 0.316 µM
[28] = second compound 3.16 µM, first compound 1 µM
[29] = second compound 3.16 µM, first compound 3.16 µM
[30] = second compound 3.16 µM, first compound 10 µM
[31] = second compound 10 µM, first compound 0.0316 µM
[32] = second compound 10 µM, first compound 0.1 µM
[33] = second compound 10 µM, first compound 0.316 µM
[34] = second compound 10 µM, first compound 1 µM
[35] = second compound 10 µM, first compound 3.16 µM
[36] = second compound 10 µM, first compound 10 µM
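For viability, T/C in this document: 100% = DMSO vehicle control viability.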

With `CC1COCCN1c1cc(-c2ccnn2C)c2ccnc(-c3ccn[nH]3)c2n1` (centres undefined) + CN(C)c1ccc(Nc2c3ccc(NC(=O)CCN4CCCC4)cc3nc3cc(NC(=O)CCN4CCCC4)ccc23)cc1 the IC50 (second compound 0.0316 µM) was 0.0515 µM, the IC50 (second compound 0.1 µM) was 0.0464 µM and the IC50 (second compound 0.316 µM) was 0.0509 µM. The IC50 (second compound 1 µM) was less than 0.0316 µM, the IC50 (second compound 3.16 µM) was 0.0408 µM and the IC50 (second compound 10 µM) was 0.0325 µM. The viability, T/C [1] was 77.7%, the viability, T/C [2] was 12.4% and the viability, T/C [3] was 6.8%. It also gave a viability, T/C [4] of 5.06%, a viability, T/C [5] of 4.62% and a viability, T/C [6] of 5.21%. For the same compound, the viability, T/C [7] was 68.3%, the viability, T/C [8] was 13.6% and the viability, T/C [9] was 6.89%. It also gave a viability, T/C [10] of 4.08%, a viability, T/C [11] of 5.19% and a viability, T/C [12] of 5.02%. For the same compound, the viability, T/C [13] was 76.5%, the viability, T/C [14] was 12.4% and the viability, T/C [15] was 5.74%. For the same compound, the viability, T/C [16] was 4.54%, the viability, T/C [17] was 5.22% and the viability, T/C [18] was 5.43%. The viability, T/C [19] was 49.3%, the viability, T/C [20] was 12.6% and the viability, T/C [21] was 6.08%. For the same compound, the viability, T/C [22] was 4.26%, the viability, T/C [23] was 5.15% and the viability, T/C [24] was 4.9%. For the same compound, the viability, T/C [25] was 60.6%, the viability, T/C [26] was 13.1% and the viability, T/C [27] was 6.06%. For the same compound, the viability, T/C [28] was 4.8%, the viability, T/C [29] was 4.59% and the viability, T/C [30] was 4.41%. For the same compound, the viability, T/C [31] was 51%, the viability, T/C [32] was 12.1% and the viability, T/C [33] was 5.91%. For the same compound, the viability, T/C [34] was 4.1%, the viability, T/C [35] was 4.19% and the viability, T/C [36] was 4.01%.
`CC(C)n1c(=O)n(C)c2cnc3cc(F)c(-c4ccc(OCCCN5CCCCC5)nc4)cc3c21` + CN(C)c1ccc(Nc2c3ccc(NC(=O)CCN4CCCC4)cc3nc3cc(NC(=O)CCN4CCCC4)ccc23)cc1 showed an IC50 (second compound 0.0316 µM) greater than 10 µM, an IC50 (second compound 0.1 µM) greater than 10 µM and an IC50 (second compound 0.316 µM) greater than 10 µM. The IC50 (second compound 1 µM) was greater than 10 µM, the IC50 (second compound 3.16 µM) was greater than 10 µM and the IC50 (second compound 10 µM) was 6.1 µM. It also gave a viability, T/C [1] of 94.4%, a viability, T/C [2] of 108% and a viability, T/C [3] of 91.8%. The viability, T/C [4] was 98.1%, the viability, T/C [5] was 109% and the viability, T/C [6] was 97.9%. It also gave a viability, T/C [7] of 110%, a viability, T/C [8] of 105% and a viability, T/C [9] of 102%. For the same compound, the viability, T/C [10] was 110%, the viability, T/C [11] was 114% and the viability, T/C [12] was 95.3%. For the same compound, the viability, T/C [13] was 97.9%, the viability, T/C [14] was 115% and the viability, T/C [15] was 103%. It also gave a viability, T/C [16] of 98.3%, a viability, T/C [17] of 122% and a viability, T/C [18] of 93.7%. The viability, T/C [19] was 132%, the viability, T/C [20] was 87% and the viability, T/C [21] was 97.6%. The viability, T/C [22] was 100%, the viability, T/C [23] was 111% and the viability, T/C [24] was 86.1%. For the same compound, the viability, T/C [25] was 101%, the viability, T/C [26] was 84.9% and the viability, T/C [27] was 97.2%. It also gave a viability, T/C [28] of 118%, a viability, T/C [29] of 119% and a viability, T/C [30] of 84.8%. It also gave a viability, T/C [31] of 118%, a viability, T/C [32] of 96.8% and a viability, T/C [33] of 112%. The viability, T/C [34] was 88.8%, the viability, T/C [35] was 66.4% and the viability, T/C [36] was 37.8%.

From PubChem BioAssay AID2060512 (Molecular Pharmacology Branch, DTP, NCI, 2025)
